In patent US6855309B2, “Cascade polymer bound complexing compounds, their complexes and conjugates, processes for their production, and pharmaceutical agents containing them” (Schering, AG, priority 1989, dated 2005):
Read-outs that look alike come from different tables or passages of the source.

Assays:
mice = experiment: LD50 i.v. in mice; assay type: in vivo
Osmolality = assay type: physicochemical; conditions: 0.5 mol/l at 37° C.
[1] = in vivo, cited from earlier work
[2] = Concentration-time curve in blood after intravenous administration in rats; assay type: in vivo; conditions: 0.2 mmol/kg intravenous
[3] = rat, in vivo; cited from earlier work
[4] = rat, in vivo; cited from earlier work; remark: listed apart in the source

CNC[C@H](O)[C@@H](O)[C@H](O)[C@H](O)CO.CNC[C@H](O)[C@@H](O)[C@H](O)[C@H](O)CO.O=C([O-])CN(CCN(CC(=O)[O-])CC(=O)O)CCN(CC(=O)[O-])CC(=O)O.[Gd+3] [Magnevist, GdDTPA/dimeglumine]
LD50 (mice): ≤ 10 mmol/kg
Osmolality (Osmolality): 1.96 osmol/kg
route of elimination ([1]; iv): eliminated, upon intravenous injection, by way of the kidneys
distribution after intravenous administration [1]: distributed after intravenous administration uniformly between the vasal and interstitial spaces
distribution space [2]: distributed in the extracellular space

Albumin-GdDTPA
dose eliminated [3]: 20 % of the dose

polylysine-GdDTPA
route of elimination [4]: eliminated unchanged by glomerular filtration via the kidneys
